Measured values published in ChEMBL document CHEMBL1150103, “Curacins B and C, New Antimitotic Natural Products from the Marine Cyanobacterium Lyngbya majuscula” (J Nat Prod, 1995).

What was measured:
[1] = Displacement of [3H]colchicine from tubulin; conditions: concentration not given here
[2] = Inhibition of tubulin polymerization
[3] = Toxicity in brine shrimp; type: organism-based; conditions: artemia, in vivo; read-out: LD50 (the source's name)
CA46 = assay: Cytotoxicity against human CA46 cells; type: functional, cell-based
L1210 = assay: Cytotoxicity against mouse L1210 cells; type: functional, cell-based

Compound | inhibition [1] [%] | IC50 [2] [µM] | LC50 [3] [µM] | Activity (CA46) | Activity (L1210)
C=CC[C@@H](CC/C(C)=C/C=C/CC/C=C\[C@@H]1CSC([C@@H]2C[C@@H]2C)=N1)OC [CURACIN A] | 96 | 1.4 | 0.008 |  | 
C=CC[C@@H](CC/C(C)=C/C=C\CC/C=C\[C@@H]1CSC([C@@H]2C[C@@H]2C)=N1)OC [CURACIN B] |  |  | 0.038 | Toxic | Toxic
C=CC[C@@H](CC/C(C)=C\C=C\CC/C=C\[C@@H]1CSC([C@@H]2C[C@@H]2C)=N1)OC [CURACIN C] |  |  | 0.054 | Toxic | Toxic
